Numbers after ± are expanded uncertainties.
assay: not given; conditions: Crystal 2; DTA

SMILES	Triple point temperature [K]
CCCCCCCCCCCC[NH2+]CCCCCCCCCCCC.[Cl-] [N-dodecyldodecan-1-aminium chloride]	338.1 ± 3
CCCCCCCCCCCCCCCCCC[NH2+]CCCCCCCCCCCCCCCCCC.O=[N+]([O-])[O-] [N-octadecyloctadecan-1-aminium nitrate]	366.65 ± 3
CCCCCCCCCCCCCCCCCC[NH2+]CCCCCCCCCCCCCCCCCC.[O-][Cl+3]([O-])([O-])[O-] [N-octadecyloctadecan-1-aminium perchlorate]	361.25 ± 3
CCCCCCCCCCCC[NH2+]CCCCCCCCCCCC.O=P([O-])(O)O [N-dodecyldodecan-1-aminium dihydrogen phosphate]	363.1 ± 3
CCCCCCCCNCCCCCCCC.Cl [N-octyl-1-octaminium hydrochloride]	294.1 ± 3
CCCCCCCC[NH2+]CCCCCCCC.O=P([O-])(O)O [N-octyloctan-1-aminium dihydrogen phosphate]	333.1 ± 3
CCCCCCCCCCCCCCCCCC[NH2+]CCCCCCCCCCCCCCCCCC.[I-] [N-octadecyloctadecan-1-aminium iodide]	366.15 ± 3
CCCCCCCC[NH2+]CCCCCCCC.[I-] [N-octyloctan-1-aminium iodide]	271.1 ± 1
CCCCCCCCCCCC[NH2+]CCCCCCCCCCCC.[Br-] [N-dodecyldodecan-1-aminium bromide]	346.1 ± 3
CCCCCCCCCCCCCCCCCC[NH2+]CCCCCCCCCCCCCCCCCC.O=S(=O)([O-])O [N-octadecyloctadecan-1-aminium hydrogen sulfate]	355.1 ± 3
CCCCCCCC[NH2+]CCCCCCCC.O=[N+]([O-])[O-] [N-octyloctan-1-aminium nitrate]	318.1 ± 3
CCCCCCCCCCCCCCCCCC[NH2+]CCCCCCCCCCCCCCCCCC.[Cl-] [N-octadecyloctadecan-1-aminium chloride]	364.35 ± 3
CCCCCCCCCCCCCCCCCC[NH2+]CCCCCCCCCCCCCCCCCC.[Br-] [N-octadecyloctadecan-1-aminium bromide]	371.15 ± 3
CCCCCCCCCCCC[NH2+]CCCCCCCCCCCC.O=S(=O)([O-])O [N-dodecyldodecan-1-aminium hydrogen sulfate]	373.1 ± 3
CCCCCCCCCCCC[NH2+]CCCCCCCCCCCC.O=[N+]([O-])[O-] [N-dodecyldodecan-1-aminium nitrate]	339.1 ± 3
CCCCCCCCCCCC[NH2+]CCCCCCCCCCCC.[I-] [N-dodecyldodecan-1-aminium iodide]	338.1 ± 3
CCCCCCCCCC[NH2+]CCCCCCCCCC.[Cl-] [didecylammonium chloride]	321.1 ± 3
CCCCCCCCCCCC[NH2+]CCCCCCCCCCCC.[O-][Cl+3]([O-])([O-])[O-] [N-dodecyldodecan-1-aminium perchlorate]	335.1 ± 3
CCCCCCCC[NH2+]CCCCCCCC.[O-][Cl+3]([O-])([O-])[O-] [N-octyloctan-1-aminium perchlorate]	296.1 ± 10
CCCCCCCCCC[NH2+]CCCCCCCCCC.O=P([O-])(O)O [N-decyldecan-1-aminium dihydrogen phosphate]	354.1 ± 3
CCCCCCCCCC[NH2+]CCCCCCCCCC.[Br-] [N-decyldecan-1-aminium bromide]	330.1 ± 3
CCCCCCCC[NH2+]CCCCCCCC.O=S(=O)([O-])O [dioctylammonium hydrogen sulfate]	463.15 ± 3
CCCCCCCCCC[NH2+]CCCCCCCCCC.O=[N+]([O-])[O-] [N-decyldecan-1-aminium nitrate]	333.1 ± 3
CCCCCCCC[NH2+]CCCCCCCC.[Br-] [N-octyloctan-1-aminium bromide]	303.1 ± 5

same assay, conditions: Crystal 3; DTA

SMILES	Triple point temperature [K]
CCCCCCCCCCCC[NH2+]CCCCCCCCCCCC.O=P([O-])(O)O [N-dodecyldodecan-1-aminium dihydrogen phosphate]	328.1 ± 3
CCCCCCCC[NH2+]CCCCCCCC.[I-] [N-octyloctan-1-aminium iodide]	267.1 ± 1
CCCCCCCCCCCCCCCCCC[NH2+]CCCCCCCCCCCCCCCCCC.O=S(=O)([O-])O [N-octadecyloctadecan-1-aminium hydrogen sulfate]	343.1 ± 3
CCCCCCCCCCCC[NH2+]CCCCCCCCCCCC.O=S(=O)([O-])O [N-dodecyldodecan-1-aminium hydrogen sulfate]	347.1 ± 3
CCCCCCCC[NH2+]CCCCCCCC.O=S(=O)([O-])O [dioctylammonium hydrogen sulfate]	371.1 ± 3

same assay, conditions: Crystal 4; DTA

SMILES	Triple point temperature [K]
CCCCCCCC[NH2+]CCCCCCCC.O=S(=O)([O-])O [dioctylammonium hydrogen sulfate]	289.1 ± 3

assay: Molar enthalpy of transition or fusion; conditions: Crystal 2; DSC

SMILES	Molar enthalpy of transition or fusion [kJ/mol]
CCCCCCCCCCCC[NH2+]CCCCCCCCCCCC.[Cl-] [N-dodecyldodecan-1-aminium chloride]	48 ± 1
CCCCCCCCCCCCCCCCCC[NH2+]CCCCCCCCCCCCCCCCCC.O=[N+]([O-])[O-] [N-octadecyloctadecan-1-aminium nitrate]	109 ± 3
CCCCCCCCCCCCCCCCCC[NH2+]CCCCCCCCCCCCCCCCCC.[O-][Cl+3]([O-])([O-])[O-] [N-octadecyloctadecan-1-aminium perchlorate]	115 ± 1
CCCCCCCCCCCC[NH2+]CCCCCCCCCCCC.O=P([O-])(O)O [N-dodecyldodecan-1-aminium dihydrogen phosphate]	83 ± 3
CCCCCCCCNCCCCCCCC.Cl [N-octyl-1-octaminium hydrochloride]	37 ± 1
CCCCCCCCCCCCCCCCCC[NH2+]CCCCCCCCCCCCCCCCCC.[I-] [N-octadecyloctadecan-1-aminium iodide]	75 ± 3
CCCCCCCCCCCC[NH2+]CCCCCCCCCCCC.[Br-] [N-dodecyldodecan-1-aminium bromide]	49 ± 1.1
CCCCCCCC[NH2+]CCCCCCCC.O=[N+]([O-])[O-] [N-octyloctan-1-aminium nitrate]	53.5 ± 1
CCCCCCCCCCCCCCCCCC[NH2+]CCCCCCCCCCCCCCCCCC.[Cl-] [N-octadecyloctadecan-1-aminium chloride]	97 ± 2
CCCCCCCCCCCCCCCCCC[NH2+]CCCCCCCCCCCCCCCCCC.[Br-] [N-octadecyloctadecan-1-aminium bromide]	81 ± 2
CCCCCCCCCCCC[NH2+]CCCCCCCCCCCC.O=[N+]([O-])[O-] [N-dodecyldodecan-1-aminium nitrate]	77 ± 1
CCCCCCCCCCCC[NH2+]CCCCCCCCCCCC.[I-] [N-dodecyldodecan-1-aminium iodide]	38.5 ± 1
CCCCCCCCCC[NH2+]CCCCCCCCCC.[Cl-] [didecylammonium chloride]	40 ± 1
CCCCCCCCCCCC[NH2+]CCCCCCCCCCCC.[O-][Cl+3]([O-])([O-])[O-] [N-dodecyldodecan-1-aminium perchlorate]	72 ± 2
CCCCCCCC[NH2+]CCCCCCCC.[O-][Cl+3]([O-])([O-])[O-] [N-octyloctan-1-aminium perchlorate]	37 ± 2
CCCCCCCCCC[NH2+]CCCCCCCCCC.O=P([O-])(O)O [N-decyldecan-1-aminium dihydrogen phosphate]	61 ± 2
CCCCCCCCCC[NH2+]CCCCCCCCCC.[Br-] [N-decyldecan-1-aminium bromide]	38 ± 2
CCCCCCCC[NH2+]CCCCCCCC.O=S(=O)([O-])O [dioctylammonium hydrogen sulfate]	4.8 ± 3
CCCCCCCCCC[NH2+]CCCCCCCCCC.O=[N+]([O-])[O-] [N-decyldecan-1-aminium nitrate]	64 ± 1
CCCCCCCC[NH2+]CCCCCCCC.[Br-] [N-octyloctan-1-aminium bromide]	25 ± 1

same assay, conditions: Crystal 3; DSC

SMILES	Molar enthalpy of transition or fusion [kJ/mol]
CCCCCCCC[NH2+]CCCCCCCC.[I-] [N-octyloctan-1-aminium iodide]	21 ± 1
CCCCCCCCCCCCCCCCCC[NH2+]CCCCCCCCCCCCCCCCCC.O=S(=O)([O-])O [N-octadecyloctadecan-1-aminium hydrogen sulfate]	109 ± 3
CCCCCCCCCCCC[NH2+]CCCCCCCCCCCC.O=S(=O)([O-])O [N-dodecyldodecan-1-aminium hydrogen sulfate]	30 ± 2
CCCCCCCC[NH2+]CCCCCCCC.O=S(=O)([O-])O [dioctylammonium hydrogen sulfate]	1.4 ± 0.3

same assay, conditions: Crystal 4; DSC

SMILES	Molar enthalpy of transition or fusion [kJ/mol]
CCCCCCCC[NH2+]CCCCCCCC.O=S(=O)([O-])O [dioctylammonium hydrogen sulfate]	4.1 ± 0.2

— the NIST ThermoML archive (doi:10.1016/j.tca.2005.04.019)
